The values that follow are results of earlier work, collected in patent publication US20060099690A1, “Extraction, purification and conversion of flavonoids from plant biomass” (Her Majesty the Queen in Right of Canada, as Repre, priority 2002, published 2006).

Data set [1] has as its system mouse hippocampal cell line HT-22 and rat primary neurons. The note with it: HT-22 cells and rat primary neurons.
The conditions of data set [2]: four hours after a meal; hydrolyzed plasma; 3'- and 4'-methylquercetin.
The next data set relates to pain transmission. The settings on record: antinociceptive activity.
The test system of a further data set is serum triglycerides. The note with it: 0.5% quercetin in diet; mice or rats.

With `O=c1c(O)c(-c2ccc(O)c(O)c2)oc2cc(O)ccc12` [fisetin], in data set [1], the “protection from oxidative stress caused by glutamate” value (from here on “protection”) is given as “quite protective”.
Consider `C[C@@H]1O[C@@H](Oc2c(-c3ccc(O)c(O)c3)oc3cc(O)cc(O)c3c2=O)[C@H](O)[C@H](O)[C@H]1O` [quercitrin, quercetin 3-rhamnoside, reference compound], for which, in data set [2], the “total concentration of metabolites in the plasma” value (“total concentration” below) is recorded as “failed to detect any metabolites”.
For `O=c1c(O[C@@H]2O[C@H](CO)[C@@H](O)[C@H](O)[C@H]2O)c(-c2ccc(O)c(O)c2)oc2cc(O)cc(O)c12` [isoquercitrin, quercetin-3-O-beta glycoside], in data set [2], the “total concentration” value was 33.2 µM.
As for `O=c1c(O)c(-c2ccc(O)cc2)oc2cc(O)cc(O)c12` [kaempferol], the “protection” value in data set [1] was “quite protective”.
As for `O=c1cc(-c2ccc(O)cc2)oc2cc(O)cc(O)c12` [apigenim], in data set [1], the “protection” value was “inactive”.
Turning to `C[C@@H]1O[C@@H](OC[C@H]2O[C@@H](Oc3c(-c4ccc(O)c(O)c4)oc4cc(O)cc(O)c4c3=O)[C@H](O)[C@@H](O)[C@@H]2O)[C@H](O)[C@H](O)[C@H]1O` [rutin], in data set [2], the “total concentration” value is 2.5 µM.
As to `O=c1c(O)c(-c2ccc(O)c(O)c2)oc2cc(O)cc(O)c12` [quercetin], the “total concentration” value in data set [2] is 11.2 µM. Moreover, in data set [1], the “protection” value is listed as “quite protective”. Also, the “dose with the same effect as 2.5 mg of morphine sulfate/Kg” value in the data set with pain transmission is 50 mg/Kg body weight. Further, the “effect on serum triglycerides” value in the data set on serum triglycerides is given as “significant lowering”.
